# Literature values as cited in patent US7959947B2, “Film coating” (AstraZeneca AB, priority 2001, dated 2011).
# Conditions: 60° C.; according to data in Handbook of Pharmaceutical Excipients
compound,measurement,value
"CCCCCCCCCCCCCCCCCCOC(=O)/C=C/C(=O)[O-].[Na+] [Sodium stearyl fumarate, sodium salt of 2-butenedioic monooctadecyl ester]",Solubility in water,0.005 gram per gram water
